Values of other authors as cited in patent publication US8962638B2, “Piperidine inhibitors of janus kinase 3” (Auspex Pharmaceuticals, Inc., priority 2009, dated 2015).

Key:
[1] = humans, 14C labeled CP-690550, oral

mean terminal phase half-life of unchanged CP-690550 [1]: approximately 3.2 hours | renal excretion of unchanged drug, share of clearance (in vivo): ~30% | non-renal share of clearance (via hepatic metabolism by CYP3A4/5 and CYP2C19): approximately 70%
SMILES: C[C@@H]1CCN(C(=O)CC#N)C[C@@H]1N(C)c1ncnc2[nH]ccc12 [CP-690550, 4-methyl-3-(methyl-7H-pyrrolo[2,3-d]pyrimidin-4-ylamino)-beta-oxo-(3R,4R)-1-piperidinepropanenitrile]
